This passage reports IC50 and EC50 results from patent US11667652B2, “MCL1 inhibitors” (Gilead Sciences, Inc., priority 2019, dated 2023).

By pIC50 is commonly meant the negative decadic logarithm of the IC50, by convention in mol/L. The term pEC50 denotes −log10 of the EC50, conventionally taken in molar units.

Assay [1] has as its target MCL1/Bim (Homo sapiens (Human), UniProt Q07820). The assay is described as follows: MCL1/Bim Binding AlphaLISA Assay. Conditions: recombinant human 6xHis-MCL1 (171-327), biotinylated Bim peptide (51-76). In short, it runs like this:
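AlphaLISA with 0.0625 nM human 6×His-MCL1 (171-327) and 0.0625 nM biotinylated Bim (51-76) peptide in 20 mM Hepes pH 7.5, 150 mM NaCl, 0.002% Brij 35, 1 mM DTT, 0.01% BSA. Compound preincubated with MCL1 1 h, Bim added 2 h, then acceptor and donor beads 1 h each; % inhibition versus DMSO and no-protein/peptide controls.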
In general terms: Bead proximity is the source of the signal in Alpha formats.

Assay [2] relates to SKBR3 cells. Description: SKBR3 Cell Viability Assay. The format is cell-based. Conditions: CellTiter Glo, read-out: MCL1 CV SKBR3 EC50. In short, it runs like this:
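Viability was measured by CellTiter-Glo luminescence after 72 h at 37° C, 5% CO2. Each well held 6,000 SKBR3 cells in McCoy's 5A/10% FBS dispensed onto serially diluted compound. Percent inhibition is relative to DMSO and 10 μM puromycin controls.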
Background: Cellular ATP, detected with luciferase, serves as a proxy for viable cell number.

Setting [3] is: Homo sapiens, SK-BR-3, 72 hours.

pEC50, pIC50: −log10 of the molar value. Like-named read-outs stand apart in the source and are kept apart here.

Sequence of MCL1/Bim (Q07820 171-327): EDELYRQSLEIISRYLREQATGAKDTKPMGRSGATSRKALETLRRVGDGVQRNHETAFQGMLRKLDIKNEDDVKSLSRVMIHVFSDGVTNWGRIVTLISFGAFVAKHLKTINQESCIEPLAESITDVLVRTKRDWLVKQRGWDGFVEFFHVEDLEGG

`CO[C@H]1/C=C/C[C@H](C)C[S@@](=O)(Nc2cnccn2)=NC(=O)c2ccc3c(c2)N(C[C@@H]2CC[C@H]21)C[C@@]1(CCCc2cc(Cl)ccc21)CO3` [Example 1]: the pIC50 in assay [1] is 9.66. Moreover, in assay [2] (setting [3]), the negative-log EC50 (pEC50) is 5.86.
With `C=CCO[C@H]1/C=C/C[C@H](C)C[S@@](=O)(NC(=O)c2cn(C)nc2OC)=NC(=O)c2ccc3c(c2)N(C[C@@H]2CC[C@H]21)C[C@@]1(CCCc2cc(Cl)ccc21)CO3` [Example 54], the pIC50 in assay [1] is 10.04. Further, in assay [2] (72 hours), the pEC50 was 6.99.
With `COc1nn(C)cc1C(=O)N[S@@]1(=O)=NC(=O)c2ccc3c(c2)N(C[C@@H]2CC[C@H]2[C@@H](OCCN2CC(C(F)F)C2)/C=C/C[C@H](C)C1)C[C@@]1(CCCc2cc(Cl)ccc21)CO3` [Example 62], in assay [1], the pIC50 is 10.16. In addition, the pEC50 in assay [2] (setting [3]) is 7.76.
In the case of `COc1nn(C)cc1C(=O)N[S@@]1(=O)=NC(=O)c2ccc3c(c2)N(C[C@@H]2CC[C@H]2[C@@H](OC)CC2CC(CCN(C)C)OC2[C@H](C)C1)C[C@@]1(CCCc2cc(Cl)ccc21)CO3` (some centres unmarked) [Example 143], in assay [1], the pIC50 is 10.43. The pEC50 in assay [2] (72 hours) was 7.43.
On to `COc1nn(C)cc1C(=O)N[S@@]1(=O)=NC(=O)c2ccc3c(c2)N(C[C@@H]2CC[C@H]2[C@@H](OC(=O)CCC2CCOCC2)/C=C/C[C@H](C)C1)C[C@@]1(CCCc2cc(Cl)ccc21)CO3` [Example 56], for which the negative-log IC50 (pIC50) in assay [1] was 9.80. In addition, the pEC50 in assay [2] (setting [3]) is 7.03.
As for `COc1nn(C)cc1C(=O)N[S@@]1(=O)=NC(=O)c2ccc3c(c2)N(C[C@@H]2CC[C@H]2[C@@H](OCCN2CC(N(C)C)C2)/C=C/C[C@H](C)C1)C[C@@]1(CCCc2cc(Cl)ccc21)CO3` [Example 58], the pIC50 in assay [1] was 10.01. For the same compound, the pEC50 in assay [2] (72 hours) is 7.42.
On the same counts, the results for `COc1nn(C)cc1C(=O)N[S@@]1(=O)=NC(=O)c2ccc3c(n2)N(C[C@@H]2CC[C@H]2[C@@H](OC)/C=C/C[C@H](C)C1)C[C@@]1(CCCc2cc(Cl)ccc21)CO3` [Example 191] are 10.70 and 7.44.
In the case of `COCC#Cc1nn(C)cc1C(=O)N[S@@]1(=O)=NC(=O)c2ccc3c(c2)N(C[C@@H]2CC[C@H]2[C@@H](OC)/C=C/C[C@H](C)C1)C[C@@]1(CCCc2cc(Cl)ccc21)CO3` [Example 210], the pIC50 in assay [1] was 10.30. Also, the pEC50 in assay [2] (setting [3]) is 6.96.
On the same counts, the results for `CO[C@H]1/C=C/C[C@H](C)[C@@H](C)[S@@](=O)(NC(=O)c2cnn(C)c2)=NC(=O)c2ccc3c(n2)N(C[C@@H]2CC[C@H]21)C[C@]1(CO3)C[C@@H]2C[C@@H]2c2cc(Cl)ccc21` [Example 205] are 10.22 and 7.09.
For `COc1nn(C)cc1C(=O)N[S@@]1(=O)=NC(=O)c2ccc3c(c2)N(C[C@@H]2CC[C@H]2[C@@H](OC)/C=C/[C@@H](OC)[C@H](C)C1)C[C@@]1(CCCc2cc(Cl)ccc21)CO3` [Example 93], in that order: 9.34 and 6.25.
As for `CO[C@H]1/C=C/C[C@H](C)C[S@@](=O)(NC(=O)NC2CC2)=NC(=O)c2ccc3c(n2)N(C[C@@H]2CC[C@H]21)C[C@@]1(CCCc2cc(Cl)ccc21)CO3` [Example 187], in assay [1], the pIC50 is 10.40. In addition, the pEC50 in assay [2] (setting [3]) was 7.32.
On to `CCn1cc(C(=O)N[S@@]2(=O)=NC(=O)c3ccc4c(c3)N(C[C@@H]3CC[C@H]3[C@@H](OC)/C=C/C[C@H](C)C2)C[C@]2(CO4)SCCc3cc(Cl)ccc32)cn1` [Example 178], for which the pIC50 in assay [1] is 10.30. In assay [2] (setting [3]), the pEC50 was 7.59.
On to `COc1nn(C)cc1C(=O)N[S@@]1(=O)=NC(=O)c2ccc3c(c2)N(C[C@@H]2CC[C@H]2[C@@H](OC)/C=C/[C@H](OCCN2CC(OC)C2)[C@H](C)C1)C[C@@]1(CCCc2cc(Cl)ccc21)CO3` [Example 81], for which the pIC50 in assay [1] is 10.96. Also, the pEC50 in assay [2] (setting [3]) was 8.20.
Take `COc1nn(C)cc1C(=O)N[S@@]1(=O)=NC(=O)c2ccc3c(n2)N(C[C@@H]2CC[C@H]2[C@@H](OC)/C=C\C[C@H](C)C1)C[C@@]1(CCCc2cc(Cl)ccc21)CO3` [Example 192]: in assay [1], the pIC50 is 10.52. In addition, the pEC50 in assay [2] (72 hours) was 6.87.
As to `COc1nn(C)cc1C(=O)N[S@@]1(=O)=NC(=O)c2ccc3c(c2)N(C[C@@H]2CC[C@H]2[C@@H](OC)/C=C/[C@H](OCCN2CC4(CN(C)C4)C2)[C@H](C)C1)C[C@@]1(CCCc2cc(Cl)ccc21)CO3` [Example 87], the negative-log IC50 (pIC50) in assay [1] was 9.72. Further, the pEC50 in assay [2] (setting [3]) was 5.96.
Take `COc1nn(C)cc1C(=O)N[S@@]1(=O)=NC(=O)c2ccc3c(c2)N(C[C@@H]2CC[C@H]2[C@@](O)(CC(=O)N2CCN(C)CC2)/C=C/C[C@H](C)C1)C[C@@]1(CCCc2cc(Cl)ccc21)CO3` [Example 100]: the pIC50 in assay [1] was 10.42. In addition, in assay [2] (72 hours), the negative logarithm of the EC50 (pEC50) is 7.45.
With `COc1nn(C)cc1C(=O)N[S@@]1(=O)=NC(=O)c2ccc3c(c2)N(C[C@@H]2CC[C@H]2/C=C/[C@H]2OCCO[C@@H]2[C@H](C)C1)C[C@@]1(CCCc2cc(Cl)ccc21)CO3` [Example 154], the pIC50 in assay [1] was 9.49. Further, the pEC50 in assay [2] (72 hours) is 5.83.
On the same counts, the results for `COc1nn(C)cc1C(=O)N[S@@]1(=O)=NC(=O)c2ccc3c(c2)N(C[C@@H]2CC[C@H]2[C@@H](OC)C[C@@H]2[C@H](OC[C@H]2C)[C@H](C)C1)C[C@@]1(CCCc2cc(Cl)ccc21)CO3` [Example 145] are 9.72 and 6.75.
As for `CO[C@H]1/C=C/C[C@H](C)C[S@@](=O)(NC(=O)[C@H]2C[C@](C)(O)C2)=NC(=O)c2ccc3c(n2)N(C[C@@H]2CC[C@H]21)C[C@@]1(CCCc2cc(Cl)ccc21)CO3` [Example 189], the pIC50 in assay [1] is 10.15. The pEC50 in assay [2] (setting [3]) is 7.14.
On the same counts, the results for `C[C@H]1C/C=C/[C@H](O)[C@@H]2CC[C@H]2CN2C[C@@]3(CCCc4cc(Cl)ccc43)COc3ccc(cc32)C(=O)N=[S@](=O)(Nc2nc(N)nc3nn(C)cc23)C1` [Example 32] are 10.24 and 7.73.
As for `COCC(=O)O[C@H]1/C=C/[C@H](OC)[C@@H]2CC[C@H]2CN2C[C@@]3(CCCc4cc(Cl)ccc43)COc3ccc(cc32)C(=O)N=[S@](=O)(NC(=O)c2cn(C)nc2OC)C[C@H]1C` [Example 73], in assay [1], the pIC50 was 10.33. In assay [2] (setting [3]), the pEC50 is 7.86.
As for `CO[C@H]1/C=C/[C@H](OC)[C@H](C)C[S@@](=O)(NC(=O)c2cn(C)nc2OCCN2CCOCC2)=NC(=O)c2ccc3c(c2)N(C[C@@H]2CC[C@H]21)C[C@@]1(CCCc2cc(Cl)ccc21)CO3` [Example 70], in assay [1], the pIC50 is 9.70. The pEC50 in assay [2] (72 hours) was 7.03.
As for `COc1nn(C)cc1C(=O)N[S@@]1(=O)=NC(=O)c2ccc3c(c2)N(C[C@@H]2CC[C@H]2[C@H]2OC(O)C[C@@H]2CC[C@H](C)C1)C[C@@]1(CCCc2cc(Cl)ccc21)CC3` (mixture of isomers) [Example 150], the pIC50 in assay [1] is 10.46. Further, the pEC50 in assay [2] (setting [3]) is 6.94.
For `COc1nn(C)cc1C(=O)N[S@@]1(=O)=NC(=O)c2ccc3c(c2)N(C[C@@H]2CC[C@H]2[C@@H](OC)/C=C/[C@H](OCc2cn(C)cn2)[C@H](C)C1)C[C@@]1(CCCc2cc(Cl)ccc21)CO3` [Example 85], in that order: 10.07 and 6.79.
As for `COc1nn(C)cc1C(=O)N[S@@]1(=O)=NC(=O)c2ccc3c(c2)N(C[C@@H]2CC[C@H]2[C@@](CN2CC(OC)C2)(OC)/C=C/C[C@H](C)C1)C[C@@]1(CCCc2cc(Cl)ccc21)CO3` [Example 117], the pIC50 in assay [1] was 10.17. In assay [2] (setting [3]), the pEC50 is 7.62.
